Results on one molecule are retold here after US10239923B2, “Specific amyloid beta binding peptides and the use of same for treating and diagnosing alzheimer's dementia” (Forschungszentrum Juelich GmbH, priority 2015, dated 2019).

Square brackets hold non-standard residues; d marks the D form. Peptide text beside a SMILES is read from it.

Test [1] concerns the target T1, Aβ1-42 species of different size (Homo sapiens, UniProt P05067). As to the kind of experiment: Density gradient centrifugation, tris-tricine SDS gel and silver staining of Aβ1-42 species. Format: biochemical. As to the method:
The batch was then incubated either with or without addition of peptide for a further 40 minutes and was then placed on an iodixanol density gradient. The gradient was then centrifuged, wherein the contents of the sample (Aβ1-42 species of different size) diffused within the gradient in accordance with their size and shape. The gradient was fractionated after centrifugation into 15 fractions (1-15), and the first 14 individual fractions were applied to a tris-tricine SDS gel. The contents per fraction were separated electrophoretically. […] The batch was then incubated either without (A) or with addition of different concentrations of Mosd1 (B=10 μM Mossd1; C=20 μM Mosd1; D=40 μM Mosd1; E=80 μM Mosd1) for a further 40 minutes and was then placed on an iodixanol density gradient. The gradient was then centrifuged, wherein the contents of the sample (Aβ1-42 species of different size) diffused within the gradient in accordance with their size and shape. The gradient was fractionated after centrifugation (1-15), and the individual fractions were applied to a tris-tricine SDS gel. The contents per fraction were separated electrophoretically.

The subject of test [2] is Neuro-2a cells stably transfected with human APP695. As to the kind of experiment: Influence on APP-expressing cells. Format: cell-based, murine. Conditions: incubation with 10 μM or 100 μM Mosd1. As to the method:
FIG. 9: The murine neuroblastoma cell line Neuro-2a serves as a model for neuronal cells and is thus suitable for analyzing the symptoms of AD. […] In this way, the influence of naturally occurring Aβ1-42 species can be examined directly in neuronal cells. In the experiment, Neuro-2a cells were cultivated without APP parallel to those with the APP transfection. […] By incubation with 10 μM or 100 μM Mosd1, however, this pathological phenotype can be reversed, and the cells develop in accordance with the physiological phenotype corresponding to wild-type Neuro-2a cells. This means that the cell number increases and the cells accumulate, have a polygonal shape and form numerous cell contact points and spurs (middle and right-hand image).

The target in another test is Aβ1-42 (Homo sapiens, UniProt P05067). The test is described as follows: ThT test, modulation of Aβ1-42 aggregation. Format: biochemical. Particulars: 10 μM Aβ1-42, equimolar peptide, versus Aβ1-42 alone = 100%. An excerpt: FIG. 3: The average relative fluorescence from seven independently performed ThT experiments with standard deviation is shown. The dye Thioflavin T (ThT) binds to β-pleated sheet structures in the batch and thereupon changes its fluorescence spectrum. […] The time in which the logarithmic rise of the fluorescence signal transitioned into a stationary phase was set to 100%.
Sequence of Aβ1-42 (P05067 672-713 limits assumed): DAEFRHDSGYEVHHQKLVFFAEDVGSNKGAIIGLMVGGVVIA

Test [3] has as its target T1, Aβ1-42 species of different size. As to the kind of experiment: Quantification of density gradient fractions by RP-HPLC. Format: biochemical. An excerpt:
Certain further embodiments of the invention including a method will be presented hereinafter. What is known as the QIAD test (quantitative determination of interference with Aβ aggregate size distribution) can be used for the quantitative analysis of active substances. The method for quantitative analysis of the influence of an active substance on the particle size distribution of amyloid peptides and/or proteins in a sample has the following steps: A beta is first left to aggregate under controlled conditions, so that different A beta aggregates form. The conditions are selected so that a particularly large amount of small, particularly cytotoxic A beta oligomers are formed. […] This change is determined quantitatively. […] Due to the QIAD method, the increase or decrease of A beta aggregates of a specific particle size is measured. […] The concentration of A beta in the respective fractions is then determined by a complete denaturing of the A beta species during a reversed-phase (RP-)HPLC performed subsequently to the fractionation. […] Eluting A beta is detected by means of UV absorption at 215 nm. […] The mean value from a number of experiments carried out independently of one another (for example six) with the resultant standard deviation can be calculated for each fraction. […]
Samples of each fraction from the experiment shown in FIG. 5 were separated and quantified by means of reversed-phase HPLC. […]

[4] abbreviates: 80 μM Aβ1-42 pre-incubated […], 40 μM peptide for 40 minutes.

T1 sequence (P05067 672-713 limits assumed): as above

Regarding `CSCC[C@@H](NC(=O)[C@@H](Cc1c[nH]cn1)NC(=O)[C@@H](Cc1ccc(O)cc1)NC(=O)[C@@H](CO)NC(=O)[C@H](NC(=O)[C@@H](CC(C)C)NC(=O)[C@@H](Cc1ccc(O)cc1)NC(=O)[C@@H](CO)NC(=O)[C@H](N)Cc1ccc(O)cc1)[C@H](C)O)C(=O)N[C@@H](C(=O)N[C@H](Cc1c[nH]c2ccccc12)C(=O)N[C@H](CCCNC(=N)N)C(N)=O)C(C)C` [Mosd1] (H-[dY][dS][dY][dL][dT][dS][dY][dH][dM][dV][dW][dR]-NH2), in test [1] (setting [4]), the “oligomeric Aβ1-42 species (fractions 4-7)” value is “reduce” and the “proportions of high-molecular Aβ1-42 species (fractions 10-14)” value was “increase”. The “signal strength in fractions 1-2 (monomeric Aβ)” value in test [1] (concentrations higher than 20 μM Mosd1) is on record as “reduction of the signal strength”. Moreover, the “proportion of small Aβ1-42 species and toxic oligomers” value in test [1] (higher concentrations, 40 μM and 80 μM Mosd1, 80 μM Aβ1-42) is “reduce the proportion of small Aβ1-42 species and toxic oligomers considerably”. In test [1] (lower concentrations, 10 μM and 20 μM Mosd1, 80 μM Aβ1-42), the “proportion of toxic oligomers (fractions 4-7)” value is “reduce the proportion of toxic oligomers”. For the same molecule, the “pathological phenotype of APP-expressing cells” value in test [2] is listed as “reversed”. In addition, on Aβ1-42, the “relative ThT fluorescence (formation of β-pleated sheet structures)” value is reported as “reduce the relative fluorescence”. Besides, in test [3] (10-80 μM Mosd1, 80 μM Aβ1-42), the “concentration of high-molecular Aβ species (fractions 11-14)” value is reported as “rises”. Besides, the “concentrations of Aβ in the fractions which contained the toxic oligomers” value in test [3] (10-80 μM Mosd1, 80 μM Aβ1-42, 3 independent experiments) was “decrease with increasing concentration of Mosd1”.
